Data: patent US12077503B2, “Substituted cyclic amides and their use as herbicides” (FMC CORPORATION, priority 2015, dated 2024)

Assays:
Test in all cases: Test C preemergence
Assay type in all cases: in vivo
[1] = test system: ryegrass, Italian (Italian ryegrass, Lolium multiflorum); conditions: for Plant response rating, Ryegrass, Italian: scale 0 to 100, 0 no effect, 100 complete control
Summary of the method: (§1)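 Seeds in loam-sand soil treated preemergence, or plants in peat-based medium sprayed postemergence at 2–18 cm (1- to 4-leaf stage), with compound in a non-phytotoxic solvent mixture containing surfactant. Greenhouse-held 13–15 d, then visually rated against controls on a 0–100 scale (0 = no effect, 100 = complete control); dash = not tested.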

[2] = test system: lambsquarters (Chenopodium album); conditions: for Plant response rating, Lambsquarters: scale 0 to 100, 0 no effect, 100 complete control
Summary of the method: as §1

[3] = test system: velvetleaf (Abutilon theophrasti); conditions: for Plant response rating, Velvetleaf: scale 0 to 100, 0 no effect, 100 complete control
Summary of the method: as §1

[4] = test system: wheat (winter wheat, Triticum aestivum); conditions: for Plant response rating, Wheat: scale 0 to 100, 0 no effect, 100 complete control
Summary of the method: as §1

[5] = test system: blackgrass (Alopecurus myosuroides); conditions: for Plant response rating, Blackgrass: scale 0 to 100, 0 no effect, 100 complete control
Summary of the method: as §1

[6] = test system: foxtail, giant (giant foxtail, Setaria faberii); conditions: for Plant response rating, Foxtail, Giant: scale 0 to 100, 0 no effect, 100 complete control
Summary of the method: as §1

[7] = test system: crabgrass, large (large crabgrass, Digitaria sanguinalis); conditions: for Plant response rating, Crabgrass, Large: scale 0 to 100, 0 no effect, 100 complete control
Summary of the method: as §1

[8] = test system: oilseed rape (Brassica napus); conditions: for Plant response rating, Oilseed Rape: scale 0 to 100, 0 no effect, 100 complete control
Summary of the method: as §1

[9] = test system: pigweed (Amaranthus retroflexus); conditions: for Plant response rating, Pigweed: scale 0 to 100, 0 no effect, 100 complete control
Summary of the method: as §1

[10] = test system: Galium (catchweed bedstraw, Galium aparine); conditions: for Plant response rating, Galium: scale 0 to 100, 0 no effect, 100 complete control
Summary of the method: as §1

[11] = test system: ragweed (common ragweed, Ambrosia elatior); conditions: for Plant response rating, Ragweed: scale 0 to 100, 0 no effect, 100 complete control
Summary of the method: as §1

[12] = test system: morningglory (Ipomoea coccinea); conditions: for Plant response rating, Morningglory: scale 0 to 100, 0 no effect, 100 complete control
Summary of the method: as §1

[13] = test system: barnyardgrass (Echinochloa crus-galli); conditions: for Plant response rating, Barnyardgrass: scale 0 to 100, 0 no effect, 100 complete control
Summary of the method: as §1

[14] = test system: waterhemp (common waterhemp, Amaranthus rudis); conditions: for Plant response rating, Waterhemp: scale 0 to 100, 0 no effect, 100 complete control
Summary of the method: as §1

[15] = test system: johnsongrass (Sorghum halepense); conditions: for Plant response rating, Johnsongrass: scale 0 to 100, 0 no effect, 100 complete control
Summary of the method: as §1

corn (Zea mays) = conditions: for Plant response rating, Corn: scale 0 to 100, 0 no effect, 100 complete control
Summary of the method: as §1

[16] = test system: nutsedge, yellow (yellow nutsedge, Cyperus esculentus); conditions: for Plant response rating, Nutsedge, Yellow: scale 0 to 100, 0 no effect, 100 complete control
Summary of the method: as §1

soybean (Glycine max) = conditions: scale 0 to 100, 0 no effect, 100 complete control
Summary of the method: as §1

[17] = 31 g ai/ha, 0 is no effect, 100 is complete control

Structure (SMILES): CC(C)Oc1cccc(C2CN(C)C(=O)C2C(=O)Nc2ccccc2S(C)(=O)=O)c1 (stereo not shown) [Compound 653]
- Plant response rating (scale of 0 to 100), Ryegrass, Italian [1, 17]: 0
- Plant response rating, Ryegrass, Italian ([1]; 62 g ai/ha): 10
- Plant response rating, Ryegrass, Italian ([1]; 125 g ai/ha): 20
- Plant response rating, Ryegrass, Italian ([1]; 250 g ai/ha): 25
- Plant response rating (scale of 0 to 100), Lambsquarters [2, 17]: 15
- Plant response rating, Lambsquarters ([2]; 62 g ai/ha): 35
- Plant response rating, Lambsquarters ([2]; 125 g ai/ha): 50
- Plant response rating, Lambsquarters ([2]; 250 g ai/ha): 60
- Plant response rating (scale of 0 to 100), Velvetleaf [3, 17]: 0
- Plant response rating, Velvetleaf ([3]; 62 g ai/ha): 25
- Plant response rating, Velvetleaf ([3]; 125 g ai/ha): 35
- Plant response rating, Velvetleaf ([3]; 250 g ai/ha): 50
- Plant response rating (scale of 0 to 100), Wheat [4, 17]: 0
- Plant response rating, Wheat ([4]; 62 g ai/ha): 0
- Plant response rating, Wheat ([4]; 125 g ai/ha): 0
- Plant response rating, Wheat ([4]; 250 g ai/ha): 40
- Plant response rating (scale of 0 to 100), Blackgrass [5, 17]: 0
- Plant response rating, Blackgrass ([5]; 62 g ai/ha): 15
- Plant response rating, Blackgrass ([5]; 125 g ai/ha): 60
- Plant response rating, Blackgrass ([5]; 250 g ai/ha): 90
- Plant response rating (scale of 0 to 100), Foxtail, Giant [6, 17]: 85
- Plant response rating, Foxtail, Giant ([6]; 62 g ai/ha): 95
- Plant response rating, Foxtail, Giant ([6]; 125 g ai/ha): 95
- Plant response rating, Foxtail, Giant ([6]; 250 g ai/ha): 100
- Plant response rating (scale of 0 to 100), Crabgrass, Large [7, 17]: 90
- Plant response rating, Crabgrass, Large ([7]; 62 g ai/ha): 95
- Plant response rating, Crabgrass, Large ([7]; 125 g ai/ha): 100
- Plant response rating, Crabgrass, Large ([7]; 250 g ai/ha): 100
- Plant response rating (scale of 0 to 100), Oilseed Rape [8, 17]: 0
- Plant response rating, Oilseed Rape ([8]; 62 g ai/ha): 0
- Plant response rating, Oilseed Rape ([8]; 125 g ai/ha): 30
- Plant response rating, Oilseed Rape ([8]; 250 g ai/ha): 85
- Plant response rating (scale of 0 to 100), Pigweed [9, 17]: 30
- Plant response rating, Pigweed ([9]; 62 g ai/ha): 20
- Plant response rating, Pigweed ([9]; 125 g ai/ha): 50
- Plant response rating, Pigweed ([9]; 250 g ai/ha): 85
- Plant response rating (scale of 0 to 100), Galium [10, 17]: 0
- Plant response rating, Galium ([10]; 62 g ai/ha): 100
- Plant response rating, Galium ([10]; 125 g ai/ha): 30
- Plant response rating, Galium ([10]; 250 g ai/ha): 40
- Plant response rating (scale of 0 to 100), Ragweed [11, 17]: 0
- Plant response rating, Ragweed ([11]; 62 g ai/ha): 5
- Plant response rating, Ragweed ([11]; 125 g ai/ha): 35
- Plant response rating, Ragweed ([11]; 250 g ai/ha): 60
- Plant response rating (scale of 0 to 100), Morningglory [12, 17]: 0
- Plant response rating, Morningglory ([12]; 62 g ai/ha): 0
- Plant response rating, Morningglory ([12]; 125 g ai/ha): 0
- Plant response rating, Morningglory ([12]; 250 g ai/ha): 0
- Plant response rating (scale of 0 to 100), Barnyardgrass [13, 17]: 20
- Plant response rating, Barnyardgrass ([13]; 62 g ai/ha): 55
- Plant response rating, Barnyardgrass ([13]; 125 g ai/ha): 80
- Plant response rating, Barnyardgrass ([13]; 250 g ai/ha): 90
- Plant response rating (scale of 0 to 100), Waterhemp [14, 17]: 35
- Plant response rating, Waterhemp ([14]; 62 g ai/ha): 30
- Plant response rating, Waterhemp ([14]; 125 g ai/ha): 50
- Plant response rating, Waterhemp ([14]; 250 g ai/ha): 80
- Plant response rating (scale of 0 to 100), Johnsongrass [15, 17]: 0
- Plant response rating, Johnsongrass ([15]; 62 g ai/ha): 0
- Plant response rating, Johnsongrass ([15]; 125 g ai/ha): 40
- Plant response rating, Johnsongrass ([15]; 250 g ai/ha): 55
- Plant response rating (scale of 0 to 100), Corn (corn (Zea mays); [17]): 0
- Plant response rating, Corn (corn (Zea mays); 62 g ai/ha): 0
- Plant response rating, Corn (corn (Zea mays); 125 g ai/ha): 0
- Plant response rating, Corn (corn (Zea mays); 250 g ai/ha): 20
- Plant response rating (scale of 0 to 100), Nutsedge, Yellow [16, 17]: 0
- Plant response rating, Nutsedge, Yellow ([16]; 62 g ai/ha): 0
- Plant response rating, Nutsedge, Yellow ([16]; 125 g ai/ha): 0
- Plant response rating, Nutsedge, Yellow ([16]; 250 g ai/ha): 25
- Plant response rating, Soybean (soybean (Glycine max); 125 g ai/ha): 5
- Plant response rating, Soybean (soybean (Glycine max); 250 g ai/ha): 40
